Assay results as given in patent US6764768B2, “Controlled release composition” (Arch Development Corporation, priority 2001, dated 2004).

What was measured:
streptavidin = assay: SPR measurement of streptavidin association with the biotin-presenting monolayer; format: binding; details: biotin 140 μM mixed with streptavidin before introduction to the SAM
Source text: The following sequence was used to measure the association of proteins to the monolayers: buffer (phosphate buffered saline, pH 7.4) was flowed over the monolayer for three minutes to establish a baseline; a solution of protein in the same buffer was flowed over the surface for eight minutes to observe binding; buffer was again flowed for four minutes to quantitate the amount of protein that remained bound. […] (SPR measures the angle of light (θ) reflected from the backside of the gold substrate that is a minimum in intensity. Changes in this angle (Δθ) are linearly related to the index of refraction of the solution above the surface and therefore to the density of adsorbed protein (Δθof 0.10°=1 ng/mm^2). Experiments show a change in θ immediately following protein injection due to differences in refractive index between the two solutions.) The change in resonance angle (Δθ) after streptavidin was flowed over the substrate corresponds to a final protein density of 1.1 ng/mm^2. The protein remained irreversibly bound because of the high affinity of the streptavidin-biotin complex.
Electrochemistry was performed in buffered water (PBS, pH 7.4) using the gold substrate as the working electrode, a platinum wire as the counter electrode, and a Ag/AgCl/KCl reference electrode—prior to mounting the substrate in a cartridge for analysis by SPR. […]

[1] = tested on: Swiss 3T3 fibroblast cells; assay: Adhesion and electrically or peptide-triggered release of cells on patterned RGD monolayer; format: cell-based
Description: The substrate was patterned into two regions that each presented the RGD peptide at a density of less than 0.1% mixed with tri(ethylene glycol) groups. The pattern was formed by applying an alkanethiol solution (corresponding to FIG. 5A) for 5 min to a gold-coated glass substrate, half of which was blocked with a polydimethylsiloxane mask. Following rinsing, the mask was removed, and the substrate was incubated in a solution of a second alkanethiol (corresponding to FIG. 5B) for 6 h. In all cases, the monolayers were formed from ethanolic solutions containing a mixture of an alkanethiol substituted with tri(ethylene glycol) and an alkanethiol substituted with either RGD or the RGD containing alkanethiol of the present invention, in a ratio of 999: 1. The two regions differed only in the linkage used to tether the peptides to the monolayer (C. Roberts, C. S. Chen, M. Mrksich, V. Martichonok, D. E. Ingber, G. M. Whitesides, J. Am. Chem. Soc. 1998, 120, 6548-6555; and B. T. Houseman, M. Mrksich, J. Org. Chem. 1998, 63, 7552-7555).
This substrate was placed into cell culture media and a suspension of Swiss 3T3 fibroblast cells was added. The Swiss Albino 3T3 cells (ATCC, Rockville, Md.) were grown in Dulbecco's Modified Eagle Medium (DMEM) containing 10% fetal bovine serum and penicillin/streptomycin. All cultures were maintained at 37° C. in a humidified 10% CO2 atmosphere. […]

Molecule | binding of streptavidin to the SAM when streptavidin was mixed with biotin (streptavidin) | cells released from the surface by soluble peptide ([1]; 2 mM in fresh media, 37° C. for 20 minutes, after electrical treatment) | detachment of cells by soluble peptide prior to electrical treatment ([1]; patterned substrate, both regions, prior to electrical treatment)
O=C(O)CCCC[C@@H]1SC[C@@H]2NC(=O)N[C@@H]21 [biotin] | no binding of the protein to the surface | – | –
Gly-Arg-Gly-Asp-Ser (GRGDS; printed: Gly-Arg-Gly-Asp-Ser) | – | greater than 95% | near complete detachment of cells from both regions
